Laboratory results published in patent US20250353841A1 (BIOGEN MA INC., priority 2022, published 2025).

Tested on: mutant Huntington (HTT) protein
Assay: HTT Mutant HTRF iPSC assay (mHTT protein lowering)
Assay type: cell-based
Details: human iPSC derived from a HTT patient with a poly-Q49 mutation

Compound | IC50
Cc1cn2nc(-c3cc(F)c4nc(NC(=O)C5CCC(N(C)C)C5)cn4c3)cc(C)c2n1 (racemic) [Compound 128, rac-3-(dimethylamino)-N-(6-(2,8-dimethylimidazo[1,2-b]pyridazin-6-yl)-8-fluoroimidazo[1,2-a]pyridin-2-yl)cyclopentane-1-carboxamide] | < 100 nM
Cc1cn2nc(-c3cc(F)c4nc(NC(=O)C5CCCC(N(C)C)C5)cn4c3)cc(C)c2n1 (racemic) [Compound 247, 3-(dimethylamino)-N-(6-(2,8-dimethylimidazo[1,2-b]pyridazin-6-yl)-8-fluoroimidazo[1,2-a]pyridin-2-yl)cyclohexane-1-carboxamide] | 100 to 1000 nM
Cc1cn2nc(-c3cc(F)c4nc(NC(=O)C5CC56CCNC6)cn4c3)cc(C)c2n1 (racemic) [Compound 253, N-(6-(2,8-dimethylimidazo[1,2-b]pyridazin-6-yl)-8-fluoroimidazo[1,2-a]pyridin-2-yl)-5-azaspiro[2.4]heptane-1-carboxamide] | 100 to 1000 nM
Cc1cn2nc(-c3cc(F)c4nc(NC(=O)C5CN(C)C5(C)C)cn4c3)cc(C)c2n1 (racemic) [Compound 259, N-(6-(2,8-dimethylimidazo[1,2-b]pyridazin-6-yl)-8-fluoroimidazo[1,2-a]pyridin-2-yl)-1,2,2-trimethylazetidine-3-carboxamide] | 100 to 1000 nM
Cc1cn2nc(-c3cc(F)c4nc(NC(=O)C5CNC5(C)C)cn4c3)cc(C)c2n1 (racemic) [Compound 260, N-(6-(2,8-dimethylimidazo[1,2-b]pyridazin-6-yl)-8-fluoroimidazo[1,2-a]pyridin-2-yl)-2,2-dimethylazetidine-3-carboxamide] | 100 to 1000 nM
Cc1cn2nc(-c3cc(F)c4nc(NC(=O)C56CCCN(CC5)C6)cn4c3)cc(C)c2n1 (racemic) [Compound 279] | < 100 nM
Cc1cn2nc(-c3cc(F)c4nc(NC(=O)C5CC6CC5CN6)cn4c3)cc(C)c2n1 (racemic) [Compound 280] | < 100 nM
Cc1cn2nc(-c3cc(F)c4nc(NC(=O)CC5CCNC5)cn4c3)cc(C)c2n1 (racemic) [Compound 283, N-(6-(2,8-dimethylimidazo[1,2-b]pyridazin-6-yl)-8-fluoroimidazo[1,2-a]pyridin-2-yl)-2-(pyrrolidin-3-yl)acetamide] | 100 to 1000 nM
Cc1cn2nc(-c3cc(F)c4nc(NC(=O)CC5CCCCN5C)nn4c3)cc(C)c2n1 (racemic) [Compound 328, N-(6-(2,8-dimethylimidazo[1,2-b]pyridazin-6-yl)-8-fluoro-[1,2,4]triazolo[1,5-a]pyridin-2-yl)-2-(1-methylpiperidin-2-yl)acetamide] | 100 to 1000 nM
Cc1cn2nc(-c3cc(F)c4nc(NC(=O)CC5CCCN5C)nn4c3)cc(C)c2n1 (racemic) [Compound 329, N-(6-(2,8-dimethylimidazo[1,2-b]pyridazin-6-yl)-8-fluoro-[1,2,4]triazolo[1,5-a]pyridin-2-yl)-2-(1-methylpyrrolidin-2-yl)acetamide] | 100 to 1000 nM
Cc1cn2nc(-c3cc(F)c4nc(NC(=O)C5CCNC6(CC6)C5)nn4c3)cc(C)c2n1 (racemic) [Compound 330, N-(6-(2,8-dimethylimidazo[1,2-b]pyridazin-6-yl)-8-fluoro-[1,2,4]triazolo[1,5-a]pyridin-2-yl)-4-azaspiro[2.5]octane-7-carboxamide] | 100 to 1000 nM
Cc1cn2nc(-c3cc(F)c4nn(C5CCNC(C)(C)C5)nc4c3)cc(C)c2n1 (racemic) [Compound 394, 6-(2,8-dimethylimidazo[1,2-b]pyridazin-6-yl)-2-(2,2-dimethylpiperidin-4-yl)-4-fluoro-2H-benzo[d][1,2,3]triazole] | 100 to 1000 nM
Cc1cn2nc(-c3cc(F)c4nn(C5CC6CNCC65)nc4c3)cc(C)c2n1 (racemic) [Compound 397, 2-(3-azabicyclo[3.2.0]heptan-6-yl)-6-(2,8-dimethylimidazo[1,2-b]pyridazin-6-yl)-4-fluoro-2H-benzo[d][1,2,3]triazole] | 100 to 1000 nM
